Source: patent US9573898B2, “Pyridine derivates and their use as Umami tastants” (Givaudan S.A., priority 2011, dated 2017)

What was measured:
Type in all cases: in vivo, human
[1] = system: small group of flavourists (2 male, 2 female); assay: Diluted soy sauce tasting by flavourists (Example 7); details: sample A: Kikkoman soy sauce diluted 10 times, 1.5 ppm compound
Method: Kikkoman® soy sauce was diluted 10 times with tap water. One part of the base soy sauce was taken as the reference. To another part (called sample A) 1.5 ppm of 2-(2,3-dihydro-1H-inden-5-yloxy)-N-(pyridin-2-ylmethyl)acetamide was added. To a third part (called sample B) 0.5 ppm of 2-(2,3-dihydro-1H-inden-5-yloxy)-N-(pyridin-2-ylmethyl)acetamide and 1 ppm of 1-(2-hydroxy-4-methoxyphenyl)-3-(pyridin-2-yl)propan-1-one were added.

[2] = system: trained sensory panel composed of 20 women; assay: Potato chips tasting by a trained sensory panel (Example 6)
Method: Plain potato chips were prepared. • One part was flavoured with 1.2% sodium chloride (sample A). • One part was flavoured with 1.2% sodium chloride and 0.3% mono sodium glutamate (sample B). • One part was flavoured with 1.2% sodium chloride and 5 ppm 2-(2,3-dihydro-1H-inden-5-yloxy)-N-(pyridin-2-ylmethyl)acetamide (sample C).
The samples A, B and C were tasted by a trained sensory panel composed of 20 women aged between 30 and 60.

[3] = system: professional panel composed of 2 women and 3 men; assay: Tasting of NaCl solutions by a professional panel (Example 2)
Method: Two solutions were prepared: • A—a solution of 0.3% NaCl and 0.05% MSG, • B—a solution of 0.3% NaCl and 1 ppm of 2-(2,3-dihydro-1H-inden-5-yloxy)-N-(pyridin-2-ylmethyl)acetamide.
The samples were tasted by a professional panel composed of 2 women and 3 men aged between 30 and 60. The panel agreed that both solutions tasted umami.

[4] = system: professional panel composed of 2 women and 3 men; assay: Tasting of NaCl/MSG/ribonucleotide solutions by a professional panel (Example 3); details: solution B (0.5% NaCl, 0.05% MSG, 0.010% ribonucleotide mixture, 2 ppm compound) vs solution A (0.5% NaCl, 0.15% MSG, 0.025% ribonucleotide mixture)
Method: Two solutions were prepared: • A—a solution of 0.5% NaCl, 0.15% MSG and 0.025% Ribonucleotide mixture, • B—a solution of 0.5% NaCl, 0.05% MSG, 0.010% Ribonucleotide mixture and 2 ppm of 2-(2,3-dihydro-1H-inden-5-yloxy)-N-(pyridin-2-ylmethyl)acetamide.
The samples were tasted by a professional panel composed of 2 women and 3 men aged between 30 and 60.

[5] = system: small group of flavourists (2 male, 2 female); assay: Tomato soup tasting by flavourists (Example 5); details: tomato soup containing 2 ppm compound vs reference soup
Method: A tomato soup mix was prepared from 9.4 g of sodium chloride, 1 g of mono sodium glutamate, 0.08 g ribonucleotides (ex yeast), 32 g of tomato powder (ex Spreda), 25.1 g of glucose, 21 g of starch (Ultrasperse® 5 ex National Starch), 5 g of palm fat powder, 3 g of yeast powder, 1 g of onion powder, 0.15 g of carrot powder, 0.05 g of ground white pepper, 0.3 g celery extract powder, 0.05 g of ground laurel leaf powder, and 1.85 g of sucrose.
25 g of the well mixed ingredients was added to 250 g of boiling water and stirred until completely dissolved.
The reference soup was compared with a batch of the same soup containing 2 ppm of 2-(2,3-dihydro-1H-inden-5-yloxy)-N-(pyridin-2-ylmethyl)acetamide.

[6] = system: professional panel composed of 2 women and 2 men; assay: Tasting of NaCl/ribonucleotide solutions by a professional panel (Example 4); details: 10 ppm compound in 0.5% NaCl and 0.002% ribonucleotide mixture vs the same solution without compound
Method: Three solutions were prepared: • A—a solution of 0.5% NaCl and 0.002% Ribonucleotide mixture, • B—a solution of 0.5% NaCl, 0.002% Ribonucleotide mixture and 10 ppm of 2-(4-ethylphenoxy)-N-(pyridin-2-ylmethyl)acetamide, • C—a solution of 0.5% NaCl, 0.002% Ribonucleotide mixture and 10 ppm of 2-(4-isopropylphenoxy)-N-(pyridin-2-ylmethyl)acetamide.
The samples were tasted by a professional panel composed of 2 women and 2 men aged between 30 and 60.

[7] = solution B (0.3% NaCl, 1 ppm compound) vs solution A (0.3% NaCl, 0.05% MSG)

For `O=C(COc1ccc2c(c1)CCC2)NCc1ccccn1` [2-(2,3-dihydro-1H-inden-5-yloxy)-N-(pyridin-2-ylmethyl)acetamide], the “complexity compared with base soy sauce” value [1] was “more complex”, the “umami and sweet taste compared with base soy sauce” value [1] was “more umami and slightly more sweet” and the panel preference ([2]; sample C (1.2% sodium chloride, 5 ppm compound) vs sample A (1.2% NaCl) and sample B (1.2% NaCl, 0.3% MSG)) was “preferred over the other two samples”. For the same compound, the taste description ([2]; sample C: 1.2% sodium chloride and 5 ppm compound) was “salty, umami, long lasting, savory”, the “further taste notes compared with solution A” value [3, 7] was “more succulence and sweetness and had more lingering notes” and the “umami strength compared with solution A” value [3, 7] was “slightly stronger umami”. The “umami taste of solution” value ([3]; solution B: 0.3% NaCl and 1 ppm compound) was “tasted umami”, the “umami strength compared with solution A” value [4] was “equal umami strength” and the “complexity of taste compared with base soup” value [5] was “tasted more complex”. For the same compound, the “umami taste compared with base soup” value [5] was “more umami”.
With `CCc1ccc(OCC(=O)NCc2ccccn2)cc1` [2-(4-ethylphenoxy)-N-(pyridin-2-ylmethyl)acetamide] the “umami strength compared with solution A” value [6] was “stronger umami strength”.
In the case of `CC(C)c1ccc(OCC(=O)NCc2ccccn2)cc1` [2-(4-isopropylphenoxy)-N-(pyridin-2-ylmethyl)acetamide], the “umami strength compared with solution A” value [6] is reported as “stronger umami strength”.
For `N[C@@H](CCC(=O)O)C(=O)[O-].[Na+]` [MSG, mono sodium glutamate, reference compound], the taste description ([2]; sample B: 1.2% sodium chloride and 0.3% mono sodium glutamate) was “salty and umami” and the “umami taste of solution” value ([3]; solution A: 0.3% NaCl and 0.05% MSG) was “tasted umami”.
